From patent US11033545B2, “Negative allosteric modulators of MGLUR5 for use in the treatment of mature brain damages” (Sinntaxis AB, priority 2016, dated 2021) come the findings set out here.

Experiment [1] concerns male C57/BL6 mice. The experiment in a line: Paw placement test after photothrombotic stroke in the mouse. In kind it is in vivo. Conditions: for paw function: continued for 5 days, FIG. 3C. As to the method: Animals. All experiments were carried out with the approval of the Malmo-Lund animal review board and according to the ARRIVE guidelines. The experiments were carried out on male C57/BL6 mice (8 weeks of age, Charles River Scanbur A/S Karlslunde, Denmark). Studies were subjected to randomization and carried out in a blinded fashion to the investigators who performed the surgeries and behavioral assessment.
Materials were as in Example 1 and the administration of the drug was made as in Example 1. Also the positive allosteric modulator (PAM) for the mGlur5 receptor was SIN006 (N-Cyclobutyl-6-[2-(3-fluorophenyl)ethynyl]-3-pyridinecarboxamide hydrochloride; VU0360172).
Induction of stroke in the mouse. Mice were subjected to unilateral photothrombotic (PT) cortical infarct in the left sensori-motor cortex. During surgery, the body temperature of the animals was kept at 37° C. using a self-regulating heating pad. Animals were anesthetized using 1.5-2.5% isoflurane (Sigma) in 100% 02. The skin above the skull was incised; a fiber optic bundle with a 2.5 mm aperture diameter was connected to a cold light source (CL 1500 ECO, Zeiss, Germany) and adjusted to the stereotaxic coordinates of the sensori-motor cortex, 0.5 mm anterior to bregma and 1.5 mm lateral to midline. One intraperitoneal (i.p.) injection of 0.25 ml Rose Bengal (10 mg/ml in 0.9% saline; Sigma-Aldrich, Germany) was given 5 min before the light was turned on for 20 minutes. Care was taken not to exceed 38° C. at the skull surface, underneath the fiber optic bundle. Post surgery, animals were allowed to awake from anesthesia while on a heating pad and returned to the cages with free access to food pellets and water.
Enriched housing. It is well known that housing of rodents in an enriched environment stimulates the various sensori-motor systems of the brain enhancing recovery after experimental stroke. Enriched housing was accomplished by the following procedure. After selective sorting at day 2 after stroke, mice were randomly distributed into standard (STD, 17 cm×16 cm×34.5 cm) or enriched cages (EE, 30 cm×27 cm×43 cm). Multilevel-enriched cages were equipped with various colored objects such as plastic tunnels, small houses, slides and rodent running wheels; the disposition of the objects was changed every second day. Mice were housed in either standard (2 animals/cage) or enriched cages (6-8 animals/cage) for 12 days. Animals in standard cages were handled similarly except for the housing condition.
Paw placement test. The mouse was held along its rostro-caudal extension on the edge of a bench and both the unilateral front and hind paws were gently pushed along it. The placement of each paw was recorded when the mouse was moved towards the edge. Sensori-motor dysfunction was assessed by using a score of 1, 0.5, and 0: (1)—the paw is immediately placed on the table surface; (0.5)—the limb is extended, but with some movements and attempts to place the paw on the surface of the table; (0)—the paw is totally immobilized, hanging down, with no movement. In order to obtain groups with a similar functional deficit prior to treatment of the animals with drugs or vehicle, selective sorting was performed on day 2 after experimental stroke, a time point of recovery when the infarct development had subsided.
(§1) Administration of the compounds. The compounds were administrated orally (p.o.) by catheters placed in the stomach. The amount of solutions were 0.2 ml/rat and 0.1 ml/mice.
(§2) Induction of stroke was as made as in Example 1 for rats and as in Example 2 in mice. Assessment of neurological function was performed as in Example 1 for rats and as in Example 2 for mice. The animals were perfused and immunostained as in Example 1, and the infarct size was assessed as in Example 1.

The next experiment has as its system male Sprague Dawley rats. The experiment in a line: Paw placement test after photothrombotic stroke in the rat. Type of experiment: in vivo. As to the method:
Animals. All experiments were carried out with the approval of the Malmö-Lund animal review board and according to the ARRIVE guidelines. Animals were housed under reverse light conditions, with the testing performed during the dark period when the rats are active. The experiments were carried out on male Sprague Dawley rats (11 weeks of age, Charles River, Scanbur A/S Karlslunde, Denmark). The studies were subjected to randomization and carried out in a blinded fashion to the investigators who performed the surgeries and behavioral assessment.
Administration of compound. The compound was injected as a bolus dose of 1 ml/kg into the lower quadrant of the abdomen.
(§3) Experimental stroke. The animals were anesthetized by isoflurane (approximately 2% in 02 under spontaneous ventilation) and placed into stereotaxic frame. Temperature was monitored during surgery using a rectal temperature probe and animals were kept at 37.0-37.5±0.2° C. by means of a heating pad with feedback control. A sagittal skin incision was made and subcutaneous connective tissue was removed and the skull was dried. Thereafter, the photosensitizer dye Rose Bengal (0.5 mL at 10 mg/mL) was infused in the tail vein. Two minutes after injection, the skull was illuminated with cold light (Schott, KL 1500 LCD) on an area of 8 to 4.5 mm for 15 min (from +4 to −4 mm antero-posterior and from 0.5 to 5 mm on the left from bregma). Thereafter the tail and the scalp incisions were sutured and the rats transferred to their home cage. The functional deficit was assessed 2 h after the onset of the stroke using the limb placement test and only the animals having a score 0, for both fore- and hindlimb contralateral to the brain damaged hemisphere were used for the study.
Test of neurological function. The paw placement test. The cortical damage inflicted by the phothrombosis, causes a deficit due to neuronal loss in the sensori-motor area and depression of functions in neuronal networks in the vicinity of the lesion. […] This test provides information on the tactile/proprioceptive response to limb stimulation. Animals were placed with all 4 paws on the table top, and the paws to be tested along the edge. The rat was moved over the edge so the paws to be tested loose contact with the table surface. The ability of the animals to place the limb back onto the table surface when the rat was moved towards the edge was evaluated. Importantly, the head was held at 45° angle, so that visual and whisker/snout stimulation was prevented. A prompt placement of the limb onto the table was scored as 1. Incomplete placing of the limb was scored as 0.5, and complete extension of the limb and paw was scored as 0. In order to obtain groups with a similar functional deficit prior to treatment of the animals with drugs or vehicle, selective sorting was performed on day 2 after experimental stroke, a time point of recovery when the infarct development had subsided.
as §1, §2
Induction of stroke, assessment of neurological function, perfusion of animals, immunostaining and assessment of infarct size were made as in Example 1.

The subject of experiment [2] is male C57/BL6 mice. The experiment is described as follows: Paw placement test after photothrombotic stroke in the mouse. In kind it is in vivo.
In a further experiment the test system is mGluR5 KO rats. The experiment in a line: Paw placement test after stroke in mGluR5 KO rats. Type of experiment: in vivo, rat. The settings on record: SIN013 treatment, FIG. 3D. Here is the method:
as §3, with “Two minutes after injection, the skull was illuminated with cold light (Schott, KL 1500 LCD) on an area of 8 to 4.5 mm for 15 min (from +4 to −4 mm antero-posterior and from 0.5 to 5 mm on the left from bregma). Thereafter the tail and the scalp incisions were sutured and the rats transferred to their home cage.” left out
Test of neurological function. […] The ability of the animals to place the limb back onto the table surface when the rat was moved towards the edge was evaluated. […] A prompt placement of the limb onto the table was scored as 1. Incomplete placing of the limb was scored as 0.5, and complete extension of the limb and paw was scored as 0. […]
Induction of stroke was as made as in Example 1 for rats and as in Example 2 in mice. […] The animals were perfused and immunostained as in Example 1, and the infarct size was assessed as in Example 1.

In the case of `COC(=O)N1CC[C@@H]2[C@H]1CCC[C@@]2(O)C#Cc1cccc(C)c1` [SIN 011, (3aR,4S,7aR)-Octahydro-4-hydroxy-4 [2-(3-methylphenyl)ethynyl]-1H-indole-1-carboxylic acid methyl ester], the paw placement function entry with male C57/BL6 mice [1] (mouse, 30 mg/kg p.o. daily for 5 days, started 2 days after stroke, vs vehicle, p<0.01, FIG. 3B) is reported as “significant recovery of paw function”.
As to `CN1CC(=O)N=C1NC(=O)Nc1cccc(Cl)c1` [SIN010, 1-(3-chlorophenyl)-3-(3-methyl-5-oxo-4H-imidazol-2-yl)urea], the “recovery of function, combined with enriched housing” value in the experiment with male C57/BL6 mice [1] (mice, daily SIN010 plus enriched housing from 2 days after stroke, vs Vh, EE alone or SIN010 alone, FIG. 4B) was “further improves recovery”. Also, in the experiment with male Sprague Dawley rats (rat, 10 mg/kg p.o. daily for 5 days or 12 days, initiated 2 days after stroke, FIG. 4A), the recovery of function entry is on record as “improves recovery function”. Also, the “improvement of function, time dependence” value in the experiment with male Sprague Dawley rats (rat, 10 mg/kg p.o. daily for 12 days, initiated 2 days after stroke, vs vehicle, FIG. 4A) is listed as “significant after 12 days of treatment”.
On to `Cl.O=C(NC1CCC1)c1ccc(C#Cc2cccc(F)c2)nc1` [SIN006, N-Cyclobutyl-6-[2-(3-fluorophenyl)ethynyl]-3-pyridinecarboxamide hydrochloride], for which the “effect on enhanced recovery of function by enriched environment” value with male C57/BL6 mice [2] (SIN006 30 mg/kg p.o. concomitant with 5 days enriched housing after stroke, FIG. 2E) is listed as “completely blocked”. In addition, in the experiment on male C57/BL6 mice [2] (SIN006 30 mg/kg p.o. daily, 1 hour prior to SIN007 5 mg/kg i.p., starting two days after stroke, FIG. 2D), the “paw placement score after 5 days of treatment” value is “did not recover function”.
On to `Cc1nc(C#Cc2ccnc(Cl)c2)c(C)n1-c1ccc(F)cc1` [SIN014], for which the functional recovery result with male C57/BL6 mice [1] (mouse, 10 mg/kg p.o. for 5 days (higher dose; lower dose 5 mg/kg p.o.), FIG. 3E) is “improved functional recovery at the higher dose”.
For `Cc1nc(C#Cc2ccnc(Cl)c2)c(C)n1-c1ccc(OC(F)(F)F)cc1` [SIN013, 2-chloro-4-[2-[2,5-dimethyl-1-[4-(trifluoromethoxy)phenyl]imidazol-4-yl]ethynyl]pyridine], the paw function result was “enhancement of function, which was significant” in the experiment on male C57/BL6 mice [1] (mouse, 2 mg/kg daily, started 2 days after stroke, p<0.05) and “enhancement of function” in the experiment with male C57/BL6 mice [1] (mouse, 2 mg/kg every 48 h, started 2 days after stroke). Besides, the paw placement function result in the experiment with male Sprague Dawley rats (wild type rat, 2 mg/kg/day p.o. for 5 days, initiated 2 days after stroke, vs vehicle, FIG. 3D) is recorded as “significantly improved paw placement function”. In addition, the “recovery of paw placement function” value in the experiment on mGluR5 KO rats is “recovery stimulated by SIN013 treatment was not seen”.
Consider `N#Cc1cc(F)cc(-c2nc(-c3ccc(F)cn3)no2)c1` [SIN 015, 3-fluoro-5-(3-(5-fluoropyridin-2-yl)-1,2,4-oxadiazol5-yl)benzonitrile], for which, in the experiment with male Sprague Dawley rats (rat, 3 mg/kg for 5 days starting 2 days after stroke, FIG. 4C), the recovery of function result is “improved recovery of function”.
`Fc1ccc2nc(CCC#Cc3ccccn3)cn2c1` [SIN008, 6-Fluoro-2-[4-(pyridin-2-yl)-3-butynyl]imidazo[1,2-a]pyridine]: the “neurological function (paw placement)” value in the experiment on male Sprague Dawley rats (rat, 30 mg/kg p.o. for 5 days, started 2 days after stroke, vs vehicle, FIG. 3A) is “significantly improved neurological function”.
